Results: PMC10761937, “Functional engineering of human iPSC‐derived parasympathetic neurons enhances responsiveness to gastrointestinal hormones” (FEBS Open Bio, 2023)

Assays:
NPY2R‐neurons = experiment: Ca^2+ imaging, NPY2R‐neurons (iPSC‐derived); type: cell-based, human
Description: (§1) Before initiating differentiation, the iPSCs (1–2 × 10^5 cells·cm^−2; Cell lines and cell culture section) were transferred to 6‐well plates (Corning, Inc., Corning, NY, USA) coated with 2‐methacryloyloxyethyl phosphorylcholine (MPC) polymer (Lipidure CM5206E; NOF, Tokyo, Japan). The cells were maintained in mTeSR1 cGMP medium containing 10 μM Y‐27632 (Fujifilm Wako Pure Chemical Industries) for 2 or 3 days to form embryoid body (EBs) in a rotary shaker at 95 r.p.m. (OS‐762RC; Optime, Tokyo, Japan). Subsequently, iPSCs were differentiated into neural crest cells (NCCs), as previously reported. Briefly, NCCs were induced from Ebs using knockout serum replacement (KSR) medium and N2 medium with graded addition of nerve growth factors and signaling factors. KSR medium was composed of DMEM‐F12 (Fujifilm Wako Pure Chemical Industries), 20% KSR (Thermo Fisher Scientific), 1% NEAA, 1% monothioglycerol (Fujifilm Wako Pure Chemical Industries), and 1% P/S. N2 medium consisted of DMEM‐F12, 1% N2 supplement (Fujifilm Wako Pure Chemical Industries), 1% NEAA, and 1% P/S. When EB formation was considered day 0 of induction, the medium was changed at days 2, 5, 7, 9, and 12. […]

GLP1R‐neurons = experiment: MEA recording of neuronal firing, GLP1R‐neurons; type: cell-based, human; settings: 10 nM GLP1; day 27; 0 nM n = 31 electrodes, 10 nM n = 34 electrodes; 5 min before and after ligand addition
Description: as §1

Substance	Intracellular Ca^2+ concentration (traces) (NPY2R‐neurons; 100 nM PYY (PYY (3–36) in method), NPY2R‐neurons day 35, Fluo‐8 AM, Fig. S5C)	Fluorescence intensity (ΔF stim/F 0) (NPY2R‐neurons; PYY, 10 nM per Fig. 6 legend (100 nM in text and Fig. S5C), day 35, n = 10, Student's t‐test vs. 0 nM, Fig. 6E)	Change rate of firing frequency (GLP1R‐neurons)
PYY: PYY (4400‐v; Peptide Institute, Inc.); PYY (3–36) in Ca2+ imaging	increased intracellular Ca^2+ concentration	significantly increased fluorescence intensity	–
GLP1: GLP1 (4280‐v; Peptide Institute, Inc.); GLP1 (7–37) in Ca2+ imaging (HAEGTFTSDVSSYLEGQAAKEFIAWLVKGRG; Glucagon-like peptide 1(7-37); UniProt P01275 98-128, looked up)	–	–	increased the change rate of firing frequency
